Laboratory results reported in patent publication US11981661B2, “Heterocyclic compounds” (Hoffmann-La Roche Inc., priority 2020, dated 2024).

These compounds were tested against T1, MAGL (Homo sapiens, UniProt Q99685) (assay: 2-AG assay (MAGL inhibitory activity, hydrolysis of 2-arachidonoylglycerol followed by mass spectrometry)). Conditions: 50 pM MAGL, 8 μM 2-arachidonoylglycerol, 15 min preincubation, 30 min incubation at RT, concentration range 12.5 μM to 0.8 pM.
T1 sequence (Q99685 1-303): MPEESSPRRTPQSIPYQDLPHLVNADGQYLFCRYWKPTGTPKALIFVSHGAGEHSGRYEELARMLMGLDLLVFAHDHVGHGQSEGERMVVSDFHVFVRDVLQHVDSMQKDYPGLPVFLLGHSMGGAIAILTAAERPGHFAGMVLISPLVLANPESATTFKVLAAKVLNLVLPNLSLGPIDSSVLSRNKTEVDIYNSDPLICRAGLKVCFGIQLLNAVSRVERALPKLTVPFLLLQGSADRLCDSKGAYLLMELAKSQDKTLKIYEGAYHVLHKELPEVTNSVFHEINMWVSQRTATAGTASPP
Format: biochemical
In short: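 50 pM MAGL preincubated 15 min at RT with compound (12.5 μM to 0.8 pM) in 50 mM TRIS, 1 mM EDTA, 0.01% Tween, then 8 μM 2-arachidonoylglycerol for 30 min at RT. Arachidonic acid measured by RapidFire SPE–triple quadrupole MS in negative mode, normalised to d8-arachidonic acid.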

Structure (SMILES)	IC50 [nM]
O=C1N[C@H](COC(=O)N2CC(c3ccc(C4(C(F)(F)F)CC4)cc3)C2)CO1 [Example 56, [(4S)-2-Oxooxazolidin-4-yl]methyl 3-[4-[1-(trifluoromethyl)cyclopropyl]phenyl] azetidine-1-carboxylate]	5
O=C1N[C@H](COC(=O)N2CC(c3ccc(Oc4ccc(F)cc4)cc3)C2)CO1 [Example 58, [(4S)-2-Oxooxazolidin-4-yl]methyl 3-[4-(4-fluorophenoxy)phenyl]azetidine-1-carboxylate]	4
CS(=O)(=O)c1cc(Cl)ccc1-c1ccc(C2CN(C(=O)CC[C@@H]3COC(=O)N3)C2)cc1 [Example 82, (4R)-4-[3-[3-[4-(4-Chloro-2-methyl-sulfonyl-phenyl)phenyl]azetidin-1-yl]-3-oxo-propyl]oxazolidin-2-one]	0.5
O=C1N[C@H](CCC(=O)N2CC(c3ccc(C4CC(C(F)(F)F)C4)cc3)C2)CO1 (stereo partly drawn) [Example 133, (4R)-4-[3-Oxo-3-[3-[4-[3-(trifluoro-methyl)cyclobutyl]phenyl]azetidin-1-yl]propyl]oxazolidin-2-one]	2
CC(C)(C)Cn1nncc1-c1ccc(C2CN(C(=O)CC[C@@H]3COC(=O)N3)C2)cc1 [Example 81, (4R)-4-[3-[3-[4-[3-(2,2-Dimethyl-propyl)triazol-4-yl]phenyl]azetidin-1-yl]-3-oxo-propyl]oxazolidin-2-one]	7
O=C(CCc1cnn[nH]1)N1CC(c2ccc(C3(C(F)(F)F)CC3)cc2)C1 [Example 37, 3-(1H-1,2,3-Triazol-5-yl)-1-(3-(4-(1-(trifluoromethyl)cyclo-propyl)phenyl)azetidin-1-yl)propan-1-one]	339
O=C1N[C@H](CCC(=O)N2CC(c3ccc(N4CCC(C(F)(F)F)C4)cn3)C2)CO1 (stereo partly drawn) [Example 103, (4R)-4-[3-Oxo-3-[3-[5-[3-(trifluoro-methyl)pyrrolidin-1-yl]-2-pyridyl]azetidin-1-yl]propyl]oxazolidin-2-one]	54
CC1(CCC(=O)N2CC(c3ccc(C4(C(F)(F)F)CC4)cc3)C2)CCC(=O)N1 (single isomer, unassigned) [Example 15, (−)- or (+)-5-Methyl-5-[3-oxo-3-[3-[4-[1-(trifluoromethyl)cyclopropyl]phenyl]azetidin-1-yl]propyl]pyrrolidin-2-one]	≥ 12500
O=C1N[C@H](CCC(=O)N2CC3(CC(Oc4ccc(F)cc4Cl)C3)C2)CO1 [Example 29, (4R)-4-[3-[6-(2-Chloro-4-fluoro-phenoxy)-2-azaspiro[3.3]heptan-2-yl]-3-oxo-propyl]oxazolidin-2-one]	6
O=C1N[C@H](CCC(=O)N2CC(c3ccc(N4CC5(C4)CC(F)(F)C5)cc3)C2)CO1 [Example 132, (4R)-4-[3-[3-[4-(6,6-Difluoro-2-azaspiro[3.3]heptan-2-yl)phenyl]azetidin-1-yl]-3-oxo-propyl]oxazolidin-2-one]	9
O=C(C(F)CCc1cnn[nH]1)N1CC(c2ccc(C3(C(F)(F)F)CC3)cc2)C1 (centres unmarked) [Example 70, 2-Fluoro-4-(1H-triazol-5-yl)-1-[3-[4-[1-(trifluoromethyl)cyclopropyl]phenyl]azetidin-1-yl]butan-1-one]	62
CC(C)(C)c1ccc(C2CN(C(=O)CC[C@@H]3COC(=O)N3)C2)nc1 [Example 72, (4R)-4-[3-[3-(5-tert-Butyl-2-pyridyl)azetidin-1-yl]-3-oxo-propyl]oxazolidin-2-one]	7
COCCN(c1ccc(C2CN(C(=O)CC[C@@H]3COC(=O)N3)C2)cc1)c1cccnc1 [Example 96, (4R)-4-[3-[3-[4-[2-Methoxyethyl(3-pyridyl)amino]phenyl]azetidin-1-yl]-3-oxo-propyl]oxazolidin-2-one]	2
O=C1CCC(CCC(=O)N2CC(OCc3ccc(C(F)(F)F)cc3F)C2)N1 (single isomer, unassigned; (-)) [Example 1, (−)-5-[3-[3-[[2-Fluoro-4-(trifluoromethyl)phenyl]methoxy]azetidin-1-yl]-3-oxo-propyl]pyrrolidin-2-one]	3960
Cc1ncccc1Oc1ccc(C2CN(C(=O)CC[C@@H]3COC(=O)N3)C2)cc1 [Example 79, (4R)-4-[3-[3-[4-[(2-Methyl-3-pyridyl)oxy]phenyl]azetidin-1-yl]-3-oxo-propyl]oxazolidin-2-one]	33
O=C1N[C@@H](COC(=O)N2CC3(CC(Cc4ccc(F)cc4F)C3)C2)CO1 [Example 59, [(4R)-2-Oxooxazolidin-4-yl]methyl 6-[(2,4-difluorophenyl)methyl]-2-azaspiro[3.3]heptane-2-carboxylate]	2
CS(=O)(=O)c1ccc(-c2ccc(C3CN(C(=O)CC[C@@H]4COC(=O)N4)C3)nc2)c(Cl)c1 [Example 108, (4R)-4-[3-[3-[5-(2-Chloro-4-methylsulfonyl-phenyl)-2-pyridyl]azetidin-1-yl]-3-oxo-propyl]oxazolidin-2-one]	7
CC1(CCC(=O)N2CC(OCc3ccc(C(F)(F)F)cc3F)C2)CCC(=O)N1 (stereo not drawn) [Example 14, (+)- or (−)-5-[3-[3-[[2-Fluoro-4-(trifluoromethyl)phenyl]methoxy]azetidin-1-yl]-3-oxo-propyl]-5-methyl-pyrrolidin-2-one]	2110
CS(=O)(=O)CC1CN(c2ccc(C3CN(C(=O)CC[C@@H]4COC(=O)N4)C3)cc2)C1 [Example 104, (4R)-4-[3-[3-[4-[3-(Methyl-sulfonylmethyl)azetidin-1-yl]phenyl]azetidin-1-yl]-3-oxo-propyl]oxazolidin-2-one]	177
CS(=O)(=O)c1ccc(-c2ncc(C3CN(C(=O)CC[C@@H]4COC(=O)N4)C3)cn2)c(Cl)c1 [Example 123, (4R)-4-[3-[3-[2-(2-Chloro-4-methylsulfonyl-phenyl)pyrimidin-5-yl]azetidin-1-yl]-3-oxo-propyl] oxazolidin-2-one]	982

The remaining lines, values ahead:

IC50 [nM]	Structure (SMILES)
73	O=C1N[C@H](CCC(=O)N2CC3(CCC(Cc4ccc(C(F)(F)F)nc4)C3)C2)CO1 (stereo partly drawn) [Example 198, (4R)-4-[3-Oxo-3-[6-[[6-(trifluoro-methyl)-3-pyridyl]methyl]-2-azaspiro[3.4]octan-2-yl]propyl]oxazolidin-2-one]
17	O=C1N[C@H](CCC(=O)N2CC(c3ccc(NCC4(C(F)(F)F)CC4)cn3)C2)CO1 [Example 175, (4R)-4-[3-Oxo-3-[3-[5-[[1-(trifluoromethyl)cyclopropyl]methylamino]-2-pyridyl]azetidin-1-yl]propyl]oxazolidin-2-one]
1220	CS(=O)(=O)c1ccc(CN2CCC3(CC2)CN(C(=O)CC[C@@H]2COC(=O)N2)C3)cc1 [Example 192, (4R)-4-[3-[7-[(4-Methyl-sulfonylphenyl)methyl]-2,7-diazaspiro[3.5]nonan-2-yl]-3-oxo-propyl] oxazolidin-2-one]
25	CS(=O)(=O)c1cc(Cl)ccc1-c1ccc(C2CN(C(=O)NCC3COC(=O)N3)C2)cc1 (centres unmarked) [Example 212, 3-[4-(4-Chloro-2-methylsulfonyl-phenyl)phenyl]-N-[(2-oxooxazolidin-4-yl)methyl]azetidine-1-carboxamide]
25	CS(=O)(=O)c1cc(F)ccc1CC1CC2(C1)CN(C(=O)CC[C@@H]1COC(=O)N1)C2 [Example 157, (4R)-4-[3-[6-[(4-Fluoro-2-methylsulfonyl-phenyl)methyl]-2-azaspiro[3.3]heptan-2-yl]-3-oxo-propyl]oxazolidin-2-one]
48	O=C1N[C@H](CCC(=O)N2CC(OCc3ccc(S(=O)(=O)C(F)(F)F)cc3)C2)CO1 [Example 166, (4R)-4-[3-Oxo-3-[3-[[4-(trifluoro-methylsulfonyl)phenyl]methoxy]azetidin-1-yl]propyl]oxazolidin-2-one]
190	O=C1N[C@H](CCC(=O)N2CC3(CCN(S(=O)(=O)c4ccc(C(F)(F)F)cc4F)CC3)C2)CO1 [Example 143, (4R)-4-[3-[7-[2-Fluoro-4-(trifluoromethyl)phenyl]sulfonyl-2,7-diazaspiro [3.5]nonan-2-yl]-3-oxo-propyl]oxazolidin-2-one]
464	O=C1N[C@H](CCC(=O)N2CC3(CC(n4cnc(C5CC5)n4)C3)C2)CO1 [Example 185, (4R)-4-[3-[6-(3-Cyclopropyl-1,2,4-triazol-1-yl)-2-azaspiro [3.3]heptan-2-yl]-3-oxo-propyl] oxazolidin-2-one]
123	O=C1N[C@H](CCC(=O)N2CC(c3cnc(N4CC5(C4)CC(F)(F)C5)cn3)C2)CO1 [Example 139, (4R)-4-[3-[3-[5-(6,6-Difluoro-2-azaspiro[3.3]heptan-2-yl)pyrazin-2-yl]azetidin-1-yl]-3-oxo-propyl]oxazolidin-2-one]
976	O=C1N[C@H](CCC(=O)N2CC3(C2)CN(S(=O)(=O)c2cccc(OC(F)(F)F)c2)C3)CO1 [Example 149, (4R)-4-[3-Oxo-3-[2-[3-(trifluoro-methoxy)phenyl]sulfonyl-2,6-diazaspiro[3.3]heptan-6-yl]propyl]oxazolidin-2-one]
854	O=C1N[C@H](CCC(=O)N2CC(c3noc(C45CC(C(F)(F)F)(C4)C5)n3)C2)CO1 [Example 169, (4R)-4-[3-Oxo-3-[3-[5-[3-(trifluoromethyl)-1-bicyclo[1.1.1]pentanyl]-1,2,4-oxadiazol-3-yl]azetidin-1-yl]propyl] oxazolidin-2-one]
59	O=C1N[C@H](CCC(=O)N2CC3(CCC(Cc4ccc(C(F)(F)F)nc4)C3)C2)CO1 (single isomer, unassigned) [Example 210, (−)- or (+)-(4R)-4-[3-Oxo-3-[6-[[6-(trifluoromethyl)-3-pyridyl]methyl]-2-azaspiro[3.4]octan-2-yl]propyl]oxazolidin-2-one]
